One assay concerns the target T1, H2-Kb molecules (Mus musculus, UniProt P01901).
T1 construct: incubated with microsomes of RAW309Cr.1 and living RAW309Cr.1 cells under UV irradiation; endogenous in cells; host or cells: RAW309Cr.1 murine macrophage cell line (purified ER microsomes, or living cells)
T1 sequence (P01901 22-369): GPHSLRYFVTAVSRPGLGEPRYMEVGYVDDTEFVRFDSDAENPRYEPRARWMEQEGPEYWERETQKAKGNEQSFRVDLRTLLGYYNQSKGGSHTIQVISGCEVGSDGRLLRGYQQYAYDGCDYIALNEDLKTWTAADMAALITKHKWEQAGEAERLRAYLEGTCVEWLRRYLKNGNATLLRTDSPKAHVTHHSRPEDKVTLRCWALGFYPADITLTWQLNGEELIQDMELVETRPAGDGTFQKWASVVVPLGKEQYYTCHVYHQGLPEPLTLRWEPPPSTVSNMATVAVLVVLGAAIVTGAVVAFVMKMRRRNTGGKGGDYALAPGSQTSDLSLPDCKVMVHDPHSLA
T1 sequence (P01887 21-119 partner): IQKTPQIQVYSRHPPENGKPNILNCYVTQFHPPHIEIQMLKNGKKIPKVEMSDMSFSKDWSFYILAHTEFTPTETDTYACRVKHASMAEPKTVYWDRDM
The assay can be described thus: Photo-crosslinking peptide binding assay of 125I-labelled ANB-NOS-OVA peptide to H2-Kb in microsomes or on the surface of RAW309Cr.1 cells. Details: species or system murine. The following applies: competitor at the concentration of report peptides. The procedure: Peptide OVA 257-264 (SIINFEKL) was modified by substitution of third residue isoleucine to tyrosine in order for iodination and by covalently coupling a phenylazide with a nitro group on the ε-amino group of lysine at position seven. This nitro group can be photoactivated. The crosslinker modification was performed by mixing 0.5 mg of ANB-NOS (N-5-azido-2-nitrobenzoyloxysuccinimide) in 200 μl DMSO with 100 μg peptide in 100 μl PBS and 50 μl CPAS (3-[cyclohexylamino]-1-propanesulfonic acid) (0.5 M, pH 10). The reaction was allowed to proceed for 30 min on ice. To remove the excess ANB-NOS and ions, the mixture was purified by gel filtration on Sephadex G-10 and subsequently by HPLC. […]
To detect the peptide-receptive MHC class I molecules in the microsomal membranes, a crosslinker (ANB-NOS) was conjugated to the ε-amino group of the lysine residue of an H2-Kb-binding ovalbumin (OVA) peptide (residues 257-264, SIINFEKL) and substituted the isoleucine at position 3 with tyrosine to allow for iodination. […] For a quantitative comparison of peptide-receptive H2-Kb in microsomes and on cell surface of living RAW309Cr.1, the modified OVA peptide was labelled by ^125I and incubated with microsomes of RAW309Cr.1 and living RAW309Cr.1 cells under UV irradiation. Peptide-bound H2-Kb molecules were subsequently analysed by immunoprecipitation with an anti-H2 antibody Y3.

Another assay concerns B3Z T cell hybridoma. Briefly: Activation of B3Z T cell hybridoma (LacZ activity, IL-2 ELISA). Format: cell-based. To be noted: soluble peptide. The protocol:
Microsomes from 2×10^5 RAW309Cr.1 cells were used to load OVA or Ld-specific peptide as described in Material and Methods. 2×10^5 RAW309Cr.1 cells were pulsed with OVA peptide (see Material and Methods). After washing, peptide-pulsed 2×10^5 RAW309Cr.1 cells, OVA-loaded microsomes, Ld-peptide loaded microsomes, and the microsomes without peptide were co-cultured with 10^5 B3Z cells for over night. A) After washing with PBS, LacZ activity in B3Z cells was assayed by total cellular lysates with the LacZ substrate ONPG. The absorbance ([…]) was read after incubation for four hours at 37° C. B3Z cells cultured with 100 nM OVA peptide and normal medium were used as positive and negative control for the B3Z stimulation. B) The supernatants of these cultures were submitted for measuring IL-2 production by ELISA. The experiment was repeated four times with similar results. Error bars indicate the SEM of triplicate cultures. […]
The prepared stimuli including peptide-edited microsomes, peptide-pulsed RAW309Cr.1 cells, OVA peptide, were added to culture of 10^5 B3Z cells in a total of 200 μl. […] The linear range of OVA-response was determined by the addition of serial dilutions of SIINFEKL to the medium due to that the B3Z cells themselves express Kb and present SIINFEKL.
A general note: ELISA stands for enzyme-linked immunosorbent assay.

Assay [1] concerns T cells isolated from spleens. The assay can be described thus: In vivo immunisation of C57BL/6 mice, spleen T cells cross-stimulated in vitro (proliferation, IL-2). The following applies: C57BL/6, injected twice subcutaneously, one week interval, T cells six days after second injection. From the text:
C57BL/6 (H-2b) mice were primed […]. by OVA-edited microsomes or Ld-peptide loaded microsomes or OVA peptide or OVA-pulsed RAW309Cr.1 cells and challenged by same stimulus after seven days. Six days after the challenge, enriched T cells were isolated from spleens and cultured at 10^5 cells/well with stimulus indicated. The RAW309Cr.1 cells were irradiated before co-culture with T cells. After three days, supernatants were harvested for cytokine ELISA (b) and cultures pulsed with [^3H]thymidine (a). The results are representative of groups of at least three mice per treatment group and the experiment was repeated four times with similar results. Error bars indicate the SEM of triplicate cultures. Similar set of experiments performed in Balb/c (H-2d) mice served as negative control.
To further examine the ability of OVA-edited microsomes to induce immune responses in vivo, OVA-edited microsomes from RAW309Cr.1 cells, microsomes loaded with Ld-specific peptide, soluble OVA peptides, RAW309Cr.1 pulsed with OVA peptides and PBS were used to induce immune response in vivo. Five groups of C57BL/6 or Balb/c mice, each group consisting of five mice, were injected twice subcutaneously with above stimuli, respectively. The interval between injections was one week. […]

Consider one sequence from patent US7498046B2, “Composition for inducing immune response comprising inverted microsomes” (Queen Mary & Westfield College, priority 2003, dated 2009).

As to SIINFEKL [OVA peptide], the “Competition of the labelled report OVA peptide binding to Kb” value with H2-Kb molecules was found to be 50%. For the same sequence, the “IL-2 production by B3Z cells” value in the assay with B3Z T cell hybridoma is listed as “could induce IL-2 production”. Also, the “Induction of T cell responses by the immunising stimulus (proliferation of spleen T cells)” value in assay [1] was “responded to OVA-edited microsomes in vitro”.
